This is an account of results in patent US6921773B2, “Use of α-1AR subtype-selective drugs in patients with acute myocardial infarction” (Duke University, priority 1999, dated 2005).

“Also recorded” adds a separate entry of the source.

What is called Kd is the equilibrium constant for the complex coming apart. A low value points to a tighter complex.

The subject of one series is human mammary artery. Description: Phenylephrine-induced mammary artery contraction (isometric tension, organ chambers), with or without a1AR antagonists. As to conditions: for Shift of phenylephrine dose response by antagonist: prazosin 10^-9 and 10^-8 mol/L, 5-MU/spiperone/BMY7378 10^-8 and 10^-7 mol/L; for Kb: read-out: Potency in inhibiting mammary artery contraction (pKB) (converted). The source says:
Mammary arteries were immersed in cold oxygenated Krebs-Ringer bicarbonate solution (118.3 mmol/L NaCl, 4.7 mmol/L KCl, 1.2 mmol/L MgSO4, 1.2 mmol/L KHPO4, […], 25 mmol/L NaHCO3, […], […]), cleaned of loose connective tissue, cut into 4-5 mm long rings, and suspended for isometric tension recording in organ chambers. One stirrup was anchored to the chamber and the other connected to a strain gauge (FT-102) for measurement of isometric force (MacLab, CB Sciences; Milford, Mass.). All concentration effect curves were performed at optimum resting tone (˜3 g in pilot studies). Contractile response to 60 mmol/L KCI was performed; this determined vessel viability and facilitated normalization of phenylephrine response across vessel rings. Phenylephrine dose-response curves were generated (10^−4-10^−9mol/L) in ½ log order concentrations in the absence/presence of competitive a1AR antagonists. […] Antagonist potency was expressed as the dissociation constant (KB) determined from pKB=log[B]log(DR-1), where [B] is antagonist concentration and DR the dose ratio produced by antagonist. Dose response curves were analyzed using DOSE RESPONSE software (MacLab, CB Sciences).

The test system of the next series is a1AR subtypes. Description: Competition analysis against [125I]HEAT in human vessel membranes. Format: binding. The conditions noted are these: mammary, renal, splenic arteries, and vena cava; n=3 experiments per vessel. As to the method:
(§1) Vessels were weighed, lumen diameter measured, pulverized under liquid nitrogen, and suspended in cold lysis buffer (5 mmol/L Tris HCl and 5 mmol/L EDTA, pH 7.4) with protease inhibitors.^14 After lysate preparation, membranes were resuspended in cold binding buffer (150 mmol/L NaCl, 50 mmol/L Tris·HCl, 5 mmol/L EDTA, with protease inhibitors, pH 7.4) as previously described;^14 protein concentration was determined using the bicinchoninic acid method (Pierce, Rockford, Ill.). Full saturation binding isotherms were performed in selected human vessels (aorta, mammary artery, saphenous vein) in 250 μl binding buffer (20-60 μg vessel membrane protein) using the α1-adrenergic antagonist [^125I]HEAT(2-[b-(hydroxy-3[^125I]iodophenyl)ethyl-aminomethyl]-tetralone; DuPont-NEN; Boston, Mass.) as previously described.^14 To measure total a1AR density in all vessels, a saturating concentration (300 pmol/L) of the [^125I]HEAT was used.

The target in another series is a1AR. Description: [125I]HEAT saturation binding isotherms in human vessel membranes. The conditions noted are these: n=2-4. As to the method: as §1
The conditions of series [1]: elderly patients; compared with alfuzosin (non-selective); cited from earlier work.
The mark [2] stands for this setting: Homo sapiens, phenylephrine dose response curves, mean±SEM.

`COc1ccccc1N1CCN(CCCNc2c(C)c(=O)n(C)c(=O)n2C)CC1` [5-MU]: the “Potency in inhibiting mammary artery contraction (pKB)” value in the series with human mammary artery (phenylephrine dose response curves, mean±SEM) is reported as 8.4±0.63. Further, the “Shift of phenylephrine dose response by antagonist” value (“Shift” below) in the series with human mammary artery is on record as “concentration dependent shift in potency without reducing maximum response”. Besides, in the series on a1AR subtypes, the “Number of binding sites in competition analysis” value is “binds to two sites”.

For the molecule `COc1ccccc1N1CCN(CCN2C(=O)CC3(CCCC3)CC2=O)CC1` [BMY7378], the “Shift” value with human mammary artery is listed as “does not produce a significant shift; also recorded: does not produce a shift in dose response”. For `CNC[C@H](O)c1cccc(O)c1` [Phenylephrine], the EC50 in the series with human mammary artery (Homo sapiens, 10 mammary arteries, mean±SEM, read-out: pD2 of isometric contraction (converted)) is 1000 nM.

`O=C1c2ccccc2CCC1CNCCc1ccc(O)c(I)c1` (stereo not shown) [^125I-HEAT, 2-[b-(hydroxy-3[^125I]iodophenyl)ethyl-aminomethyl]-tetralone]: the Kd on a1AR (aorta) came to 0.13 ± 0.0002 nM; at a1AR (mammary artery), 0.13 ± 0.0031 nM; at a1AR (saphenous vein), 0.13 ± 0.00065 nM. With `COc1cc2nc(N3CCN(C(=O)c4ccco4)CC3)nc(N)c2cc1OC` [prazosin], the Kb in the series on human mammary artery (setting [2]) is 0.631 nM. Also, the “Shift” value with human mammary artery was “concentration dependent shift in potency without reducing maximum response”. Turning to `O=C(CCCN1CCC2(CC1)C(=O)NCN2c1ccccc1)c1ccc(F)cc1` [spiperone], the Kb with human mammary artery (setting [2]) was 2.51 nM. Further, the “Shift” value with human mammary artery is “concentration dependent shift in potency without reducing maximum response”.

As to `CCOc1ccccc1OCCN[C@H](C)Cc1ccc(OC)c(S(N)(=O)=O)c1` [tamsulosin], the Blood pressure perturbation entry in series [1] was “less blood pressure perturbation”.
